Values joined by “and” are separate entries in the source; they are usually repeats but may differ in a detail not shown here. Equal values may be shown once.
Molecular target: crude AD brain extracts (tau seeds) in HEK293T tau biosensor cells (Homo sapiens, UniProt P10636)
Assay: Tau biosensor cell seeding assay, screen with crude AD brain extracts
Format: cell-based
Settings: 10 μM inhibitor on cells, seeds pre-incubated 16–18 h at 4 °C, individual replicates (n=3), DMSO control 10734.9/12808.5/11145.3
From the text: From the in silico screen, compounds were ranked and 46 were selected for further experimental validation based on the total binding energy of the ligand/fibril complex. The experimental assessment consisted of direct measures of fibril disassembly (Fig. 2d, e and Supplementary Table 3) and assessment of the seeding capability of the products of disassembled AD tau fibrils in a biosensor cell assay. Disaggregating molecules that produce active seeds are undesirable for therapy and are excluded from further study. HEK293T cells expressing CFP- or YFP-fused tau are transduced with exogenous AD tau fibrils. Externally applied AD-tau fibrils then induce the aggregation of the endogenous fluorescent tau, resulting in the formation of FRET-positive intracellular aggregates, visible as bright puncta by fluorescence microscopy (Fig. 2f). Automated image analysis of visible puncta provides an objective quantification of seeded aggregation. […] Although biosensors may be limited in reporting structural characteristics of fibril progeny, they offer exquisitely sensitive measures of tau seeding activity—the ability for fibrils to recruit monomeric protein into fibrillar form, which is thought to be the mechanism for tau spreading in AD.
Human autopsy samples were obtained by the Mayo Clinic Brain Bank and UCLA Pathology Department according to HHS regulations from patients consenting to autopsy. Samples were provided to the researchers of this study as anonymized tissues. For purification of paired helical filaments (PHFs) and straight filaments (SFs) from AD brain tissue, extractions were performed according to the previously published protocol without any modifications. […] For biosensor seeding assays with crude AD brain extracts, fresh-frozen tissue from neuropathologically confirmed AD cases was thawed and cut into a 0.2–0.3 g sections. Tissue was manually homogenized in a 15 ml disposable tube in 1 ml of 50 mM Tris, pH 7.4 with 150 mM NaCl, and then aliquoted to PCR tubes and sonicated in a cuphorn bath for 120 min under 30% power at 4 °C in a recirculating ice water bath, according to reference.
HEK293T cell lines stably expressing tau-K18 P301S-eYFP were obtained from Marc Diamond[25] and used without further characterization or authentication. […] Inhibitors were dissolved in DMSO. […] After twenty minutes, 10 µl of fibrils were added to 90 µl of tau biosensor cells. The number of seeded aggregates was determined by imaging the entire well of a 96-well plate in triplicate using a Celigo Image Cytometer (Nexcelom) in the YFP channel. The number of aggregates in a given image was determined using an ImageJ 2.3.0[50] script, which subtracts the background fluorescence from unseeded cells, and then counts the number of aggregates as peaks with fluorescence above the background using the built-in Particle Analyzer. The number of aggregates was normalized to the confluence of each well, and dose-response plots were generated by calculating the average and standard deviations from triplicate measurements.

crude AD brain extracts (tau seeds) in HEK293T tau biosensor cells, sequence (P10636 623-695 limits assumed): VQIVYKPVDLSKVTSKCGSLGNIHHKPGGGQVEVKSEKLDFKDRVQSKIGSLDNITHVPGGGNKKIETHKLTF

How did the “Number of seeded aggregates in tau biosensor cells (normalized to confluence), Fig. 2e” value (from here on “Number … (normalized to confluence), Fig. 2e”) (listed as ingenol-3-angelate) turn out when `C/C=C(/C)C(=O)O[C@H]1C(C)=C[C@]23C(=O)[C@@H](C=C(CO)[C@@H](O)[C@]12O)[C@H]1[C@@H](C[C@H]3C)C1(C)C` [FDA-A-13, Ingenol mebutate] was run?
The value was 10027.6 and 8367.28 and 13011.7.

`CO[C@H]1C[C@@H]2CC[C@@H](C)[C@@](O)(O2)C(=O)C(=O)N2CCCC[C@H]2C(=O)O[C@H]([C@H](C)C[C@@H]2CC[C@@H](OCCO)[C@H](OC)C2)CC(=O)[C@H](C)/C=C(\C)[C@@H](O)[C@@H](OC)C(=O)[C@H](C)C[C@H](C)/C=C/C=C/C=C/1C` [FDA-A-7, Everolimus] was tested. Which “Number … (normalized to confluence), Fig. 2e” value did it give?
Its value is 3758.68 and 4378.2 and 11639.6.

For `CC(C)OC(=O)CCC/C=C\C[C@@H]1[C@@H](/C=C/[C@@H](O)COc2cccc(C(F)(F)F)c2)[C@H](O)C[C@@H]1O` [FDA-R-18, Travoprost], which “Number … (normalized to confluence), Fig. 2e” value is on record?
Its value is 5152.95 and 6033.26 and 10826.5.

How did the “Number … (normalized to confluence), Fig. 2e” value (listed as 7663820) turn out when `N#Cc1c2c(n3cc4ccccc4cc13)C(=O)c1ccccc1C2=O` [CNS-20, 5,14-dioxo-5,14-dihydrobenzo[5,6]indolo[1,2-b]isoquinoline-13-carbonitrile] was run?
The value was 40070.2 and 48758.2 and 61897.7.

How did the “Number … (normalized to confluence), Fig. 2e” value turn out when `CNS(=O)(=O)CCc1ccc2[nH]cc(C3CCN(C)CC3)c2c1` [FDA-R-4, Naratriptan] was run?
The value was 8578.9 and 6012.3 and 15427.

For `O=[N+]([O-])O[C@@H]1CO[C@H]2[C@@H]1OC[C@@H]2O` [FDA-R-17, Isosorbide Mononitrate], which “Number … (normalized to confluence), Fig. 2e” value (listed as isosorbide mononitrate mw) is on record?
The value was 7858.85 and 13647.5 and 18697.1.

`Cc1ccc(N2C(=O)CC(n3cnc4ccccc43)C2=O)c(C)c1` (centres unmarked) [CNS-22, 3-(1H-benzimidazol-1-yl)-1-(2,4-dimethylphenyl)-2,5-pyrrolidinedione] was tested. Which “Number … (normalized to confluence), Fig. 2e” value (listed as 7729218) did it give?
The value was 7077.98 and 8551.58 and 10715.2.

How did the “Number … (normalized to confluence), Fig. 2e” value turn out when `CN(C)CCCN1c2ccccc2CCc2ccccc21` [FDA-R-24, Imipramine] was run?
Its value is 13643.9.

How did the “Number … (normalized to confluence), Fig. 2e” value (listed as Prolixin decanoate aka fluphenazine) turn out when `CCCCCCCCCC(=O)OCCN1CCN(CCCN2c3ccccc3Sc3ccc(C(F)(F)F)cc32)CC1` [FDA-R-15, Prolixin decanoate] was run?
The value was 15859.2 and 19243.3 and 27665.8.

`COc1cccc(C2C(C(=O)Nc3ccccn3)=C(C)NC3=C2C(=O)CCC3)c1` (centres unmarked) [CNS-5, 4-(3-methoxyphenyl)-2-methyl-5-oxo-N-2-pyridinyl-1,4,5,6,7,8-hexahydro-3-quinolinecarboxamide] was tested. Which “Number … (normalized to confluence), Fig. 2e” value (listed as 6327117) did it give?
The value was 5790.63 and 5091.84 and 10386.8.

How did the “Number … (normalized to confluence), Fig. 2e” value turn out when `COc1ccc2c(c1)C(=O)N(CCc1ccc(S(=O)(=O)NC(=O)NC3CCCCC3)cc1)C(=O)C2(C)C` [FDA-R-2, Gliquidone] was run?
Its value is 7523.16 and 6557.51 and 13245.

Which “Number … (normalized to confluence), Fig. 2e” value does the source give for `Cc1ccc(-n2nccn2)c(C(=O)N2CCN(c3nc4cc(Cl)ccc4o3)CC[C@H]2C)c1` [FDA-A-20, Suvorexant] here?
Its value is 10609.4 and 12014.6 and 14701.5.

For `CN(C)S(=O)(=O)c1ccc2c(c1)/C(=C/c1cc3c([nH]1)CCCC3)C(=O)N2` [su6656], which “Number … (normalized to confluence), Fig. 2e” value is on record?
The value was 5170.49 and 6311.14 and 10607.

How did the “Number … (normalized to confluence), Fig. 2e” value turn out when `C[C@@H]1C/C=C/C=C/C=C/C=C/[C@H](O[C@@H]2O[C@H](C)[C@@H](O)[C@H](N)[C@@H]2O)C[C@@H]2O[C@](O)(C[C@@H](O)C[C@H]3O[C@@H]3/C=C/C(=O)O1)C[C@H](O)[C@H]2C(=O)O` [FDA-R-19, Natamycin] was run?
The value was 9211.55 and 6199.61 and 13007.3.

`COc1cc([C@@H]2c3cc4c(cc3[C@@H](O[C@@H]3O[C@@H]5CO[C@@H](c6cccs6)O[C@H]5[C@H](O)[C@H]3O)[C@H]3COC(=O)[C@H]23)OCO4)cc(OC)c1O` [FDA-A-11, Teniposide] was tested. Which “Number … (normalized to confluence), Fig. 2e” value did it give?
The value was 28315 and 23778 and 42223.8.

For `Cn1c(=O)n(C)c2cc3c(cc21)nc1c2cccc4cccc(c(=O)n31)c42` [CNS-1, 10,12-dimethyl-10,12-dihydro-7H,11H-benzo[de]imidazo[4',5':5,6]benzimidazo[2,1-a]isoquinoline-7,11-dione], which “Number … (normalized to confluence), Fig. 2e” value (listed as 7850915) is on record?
Its value is 11080.3 and 15413.1 and 17191.

With `CN1C[C@H](C(=O)N[C@]2(C)O[C@@]3(O)[C@@H]4CCCN4C(=O)[C@H](Cc4ccccc4)N3C2=O)C[C@@H]2c3cccc4[nH]cc(c34)C[C@H]21` [FDA-A-23, Dihydroergotamine] as the compound, how does the “Number … (normalized to confluence), Fig. 2e” value (listed as dihydroergotamine mesylate) read?
The value was 6873.71 and 6659.65 and 11949.1.

`CC1=NN(c2ccc(C)c(C)c2)C(=O)/C1=N\Nc1cccc(-c2cccc(C(=O)O)c2)c1O` [FDA-A-15, Eltrombopag] was tested. Which “Number … (normalized to confluence), Fig. 2e” value did it give?
The value was 3758.35 and 8279.6 and 8614.09.

With `Oc1c(Cl)cc(Cl)c2cccnc12` [5,7-dichloro-8-quinolinol AKA Chloroxine, 5,7-dichloro-8-quinolinol] as the compound, how does the “Number … (normalized to confluence), Fig. 2e” value read?
The value was 8929.14 and 10028.6 and 22099.9.

For `C[C@]12C=CC(=O)N[C@@H]1CC[C@@H]1[C@@H]2CC[C@]2(C)[C@@H](C(=O)Nc3cc(C(F)(F)F)ccc3C(F)(F)F)CC[C@@H]12` [FDA-A-9, Dutasteride], which “Number … (normalized to confluence), Fig. 2e” value is on record?
The value was 6197.61 and 4567.33 and 9824.67.

Which “Number … (normalized to confluence), Fig. 2e” value (listed as 6991358) does the source give for `O=C(c1cc2cc(Br)ccc2oc1=O)N1CCc2ccccc2C1` [CNS-10, 6-bromo-3-(3,4-dihydro-2(1H)-isoquinolinylcarbonyl)-2H-chromen-2-one] here?
Its value is 4869.84 and 6105.12 and 9256.09.

How did the “Number … (normalized to confluence), Fig. 2e” value (listed as 6933498) turn out when `Cc1ccc(S(=O)(=O)N(C(F)F)C(C)(C)C)cc1` [CNS-9, N-(tert-butyl)-N-(difluoromethyl)-4-methylbenzenesulfonamide] was run?
Its value is 6268.06 and 9513.63 and 13394.2.

`CC(=O)c1ccc(S(=O)(=O)NC(=O)NC2CCCCC2)cc1` [FDA-R-8, Acetohexamide] was tested. Which “Number … (normalized to confluence), Fig. 2e” value (listed as acetohexamide aka Dymelor) did it give?
Its value is 9289.39 and 6525.19 and 13238.7.

Which “Number … (normalized to confluence), Fig. 2e” value does the source give for `CNC(=C[N+](=O)[O-])NCCSCc1csc(CN(C)C)n1` [FDA-R-7, Nizatidine] here?
Its value is 6548.12 and 9220.9 and 15017.2.

For `CC1=C(C/C=C(\C)CCC[C@H](C)CCC[C@H](C)CCCC(C)C)C(=O)c2ccccc2C1=O` [FDA-R-9, Phytonadione], which “Number … (normalized to confluence), Fig. 2e” value is on record?
The value was 7414.6 and 8137.54 and 11548.1.

Which “Number … (normalized to confluence), Fig. 2e” value (listed as 9002758) does the source give for `Cc1cccc(-c2noc(-c3ccccc3C(=O)NCc3cccnc3)n2)c1` [CNS-24, 2-[3-(3-methylphenyl)-1,2,4-oxadiazol-5-yl]-N-(3-pyridinylmethyl)benzamide] here?
The value was 4798.71 and 2194.24 and 9734.93.
